Test results as given in article doi:10.1101/2022.04.17.488584v1, “A cobB like protein in Oryza sativa indica regulates the mitochondrial machinery under stress conditions” (biorxiv, 2022).
Where two headings read alike, the source gives them in different places.

Key:
OscobB [1] = target: T1, OscobB (Oryza sativa, UniProt A2XBC4); assay: dot blot deacetylation assay; type: biochemical
T1 construct: gene OsI_09569; cobB-like portion 269-501 of OsI_09569, untagged, modified pET28a (insert 711 bp), E. coli BL21(DE3), ion exchange; 25-28 kDa monomer
T1 sequence (A2XBC4 269-501): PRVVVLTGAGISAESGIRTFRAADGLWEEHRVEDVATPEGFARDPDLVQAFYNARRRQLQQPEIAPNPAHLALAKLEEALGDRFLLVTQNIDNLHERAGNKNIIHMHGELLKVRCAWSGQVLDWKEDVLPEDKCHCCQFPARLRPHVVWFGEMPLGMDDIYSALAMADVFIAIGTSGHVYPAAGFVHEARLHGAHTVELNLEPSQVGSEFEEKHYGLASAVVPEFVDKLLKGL

OscobB [2] = target: T1, OscobB; assay: intrinsic tryptophan fluorescence quenching; type: binding
OscobB [3] = target: T1, OscobB; assay: dot blot deacetylation assay; type: biochemical; remark: listed apart in the source

## NC(=O)c1cccnc1 [NAM]
OscobB [1]
  IC50: 253 ± 45 µM

## NC(=O)c1ccc[n+]([C@@H]2O[C@H](COP(=O)(O)OP(=O)(O)OC[C@H]3O[C@@H](n4cnc5c(N)ncnc54)[C@H](O)[C@@H]3O)[C@@H](O)[C@H]2O)c1 [NAD^+]
OscobB [2]
  Kd: 30 ± 2 µM

## Oc1ccc(/C=C/c2cc(O)cc(O)c2)cc1 [resveratrol]
OscobB [3]
  EC50: 51 µM

## Nc1ncnc2c1ncn2[C@@H]1O[C@H](COP(=O)(O)OP(=O)(O)OC[C@H]2OC(O)[C@H](O)[C@@H]2O)[C@@H](O)[C@H]1O (stereo partly shown) [ADP-ribose]
OscobB [1]; NAD+, analog of product O-acetyl-ADP-ribose
  IC50: 410 µM
